Experimental data taken from the Kinase Knowledgebase extract (Sharma et al. 2016).

Assays:
[1] = biological target: EGFR (human) (UniProt P00533)
[2] = biological target: CDK2 (human) (UniProt P24941); test: Cell-Based Assay
[3] = biological target: CDK2 (human) (UniProt P24941); test: Enzyme Assay

Sequence of EGFR (human) (P00533 whole entry, looked up): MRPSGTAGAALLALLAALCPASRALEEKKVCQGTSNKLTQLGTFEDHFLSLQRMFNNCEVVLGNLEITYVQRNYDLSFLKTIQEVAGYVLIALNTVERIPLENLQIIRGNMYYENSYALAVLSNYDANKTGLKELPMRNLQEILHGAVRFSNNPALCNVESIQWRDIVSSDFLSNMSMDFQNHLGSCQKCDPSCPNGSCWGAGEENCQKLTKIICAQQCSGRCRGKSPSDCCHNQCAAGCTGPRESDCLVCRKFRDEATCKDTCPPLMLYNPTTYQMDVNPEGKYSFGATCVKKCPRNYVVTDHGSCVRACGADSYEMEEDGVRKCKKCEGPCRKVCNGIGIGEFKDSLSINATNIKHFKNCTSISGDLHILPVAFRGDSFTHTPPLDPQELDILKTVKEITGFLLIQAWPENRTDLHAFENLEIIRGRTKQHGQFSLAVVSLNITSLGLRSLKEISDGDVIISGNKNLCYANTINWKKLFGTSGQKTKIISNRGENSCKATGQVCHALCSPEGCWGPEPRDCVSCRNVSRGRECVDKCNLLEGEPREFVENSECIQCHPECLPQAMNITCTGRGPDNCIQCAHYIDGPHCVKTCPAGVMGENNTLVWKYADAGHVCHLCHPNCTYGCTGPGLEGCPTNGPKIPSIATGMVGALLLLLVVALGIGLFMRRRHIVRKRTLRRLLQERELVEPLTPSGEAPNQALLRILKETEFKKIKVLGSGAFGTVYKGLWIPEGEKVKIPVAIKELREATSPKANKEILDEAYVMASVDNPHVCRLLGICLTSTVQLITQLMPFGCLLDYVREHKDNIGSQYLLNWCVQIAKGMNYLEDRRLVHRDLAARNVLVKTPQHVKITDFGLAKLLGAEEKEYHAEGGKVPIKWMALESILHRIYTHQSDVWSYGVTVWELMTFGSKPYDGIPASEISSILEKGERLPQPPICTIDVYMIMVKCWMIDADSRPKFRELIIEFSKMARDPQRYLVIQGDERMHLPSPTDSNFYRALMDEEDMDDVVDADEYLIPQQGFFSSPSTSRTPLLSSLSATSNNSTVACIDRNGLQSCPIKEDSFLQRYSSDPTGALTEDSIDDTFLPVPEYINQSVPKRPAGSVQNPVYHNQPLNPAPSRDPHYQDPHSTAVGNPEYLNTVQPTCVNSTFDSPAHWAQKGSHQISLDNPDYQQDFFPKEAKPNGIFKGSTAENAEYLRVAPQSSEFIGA

Structure (SMILES)	IC50 [1]	GI50 ([2]; hct 116)	GI50 ([2]; a431)	IC50 [3]
Clc1cccc(Nc2ncnc3cc4c(cc23)OCCO4)c1	0.0008 µM	–	–	–
CC1=C(C(=O)Nc2cccc([N+](=O)[O-])c2)C(c2ccc(O)cc2O)NC(NCc2ccccc2)=N1 (stereo not given)	–	> 100 µM	–	–
Cc1nc(NN2C(=O)C(=Cc3ccccc3)SC2=S)nc(-c2ccc(O)cc2O)c1C(=O)Nc1cccc([N+](=O)[O-])c1	> 100 µM	16.6 µM	24.3 µM	28.2 µM
Cc1nc(NN)nc(-c2ccc(O)cc2O)c1C(=O)Nc1cccc([N+](=O)[O-])c1	47.9 µM	47.7 µM	24.3 µM	> 100 µM
Cc1nc(NN2C(=O)C(=Cc3cccs3)SC2=S)nc(-c2ccc(O)cc2O)c1C(=O)Nc1cccc([N+](=O)[O-])c1	80.6 µM	4.5 µM	2.78 µM	0.3 µM
Cc1nc(NN=Cc2cccs2)nc(-c2ccc(O)cc2O)c1C(=O)Nc1cccc([N+](=O)[O-])c1	> 100 µM	38.2 µM	19.1 µM	22.9 µM
CC1=CN(c2nc(C)c(C(=O)Nc3cccc([N+](=O)[O-])c3)c(-c3ccc(O)cc3O)n2)C(=O)C1=Cc1ccco1	> 100 µM	> 100 µM	15.8 µM	10.3 µM
Cc1nc(NN2C(=O)C(=Cc3ccco3)SC2=S)nc(-c2ccc(O)cc2O)c1C(=O)Nc1cccc([N+](=O)[O-])c1	99.3 µM	> 100 µM	28.9 µM	0.4 µM
CC1=C(C(=O)Nc2cccc([N+](=O)[O-])c2)C(c2ccc(O)cc2O)NC(SCc2ccccc2)=N1 (stereo not given)	–	–	> 100 µM	–
Cc1nc(NN=Cc2ccco2)nc(-c2ccc(O)cc2O)c1C(=O)Nc1cccc([N+](=O)[O-])c1	> 100 µM	8.89 µM	2.91 µM	3.8 µM
CC1=CN(c2nc(C)c(C(=O)Nc3cccc([N+](=O)[O-])c3)c(-c3ccc(O)cc3O)n2)C(=O)C1=Cc1cccs1	> 100 µM	26.5 µM	37.1 µM	3.1 µM
